From patent US20110044963A1, “Method of Testing a Patient for Hypertension and Related Method of Treatment and Test Kit” (priority 2009, published 2011)

What was measured:
[1] = tested on: rats infused with angiotensin II; experiment: Vasoconstriction hypertension model (angiotensin II infusion), urinary angiotensinogen excretion and hypertension; format: in vivo, rat; settings: for angiotensinogen excretion (in words): angiotensin II treated rats, compared with Sham rats; for UAGT (Final) / UAGT (Initial): male rats, angiotensin infusion model; for UAGT (Final): final measurement, Sham 2.4 ± 0.5; for UAGT (Initial): initial measurement
Experimental: (§1) Tests were performed to determine whether nonpregnant rats of one of two models of human essential hypertension would create a problem with respect to the other model. More specifically, a volume expansion model included taking out one kidney, thereby accelerating the process of developing hypertension, plus the replacement of drinking water with saline and weekly administration of DOCA, a powerful mineralocorticoid in order to ensure that the salt present in the saline is retained in the rat. This was compared with a model used to induce vasoconstriction by infusing a powerful vasoconstrictor, angiotensin II. It was theorized that the use of an antagonist of MBG, resibufogenin (“RBG”) would ameliorate the hypertension in volume expanded animals and would have no effect on the rats infused with angiotensin II.
(§2) The test indicates the group of rats from a Sham (control) rat with measurements being taken initially and finally. It is noted that, in the NDS rats, which were subjected to nephrectomy and DOCA plus saline, there was no significant increase in the excretion of angiotensinogen. […] The RBG, as expected, also had no effect on the hypertension induced by angiotensin infusion.

[2] = tested on: volume expansion model rats (nephrectomy DOCA saline); experiment: Volume expansion hypertension model (nephrectomy, DOCA, saline), urinary angiotensinogen excretion; format: in vivo, rat
Experimental: as §1, §2

Compound: angiotensin II (DRVYIHPF; Angiotensin-2; UniProt P01019 25-32, looked up) [powerful vasoconstrictor, an octapeptide, infused to induce vasoconstriction]
- angiotensinogen excretion (in words) [1]: very substantial increase
- UAGT (Final) [1]: 7.1 ± 0.5 nmol/day
- UAGT (Initial) [1]: 2.6 ± 0.2 nmol/day

Compound: C[C@]12CC[C@H](O)C[C@H]1CC[C@@H]1[C@@H]2CC[C@]2(C)[C@@H](c3ccc(=O)oc3)C[C@H]3O[C@]132 [RBG, resibufogenin]
- increase in angiotensinogen (in words) ([2]; NDSR rats: nephrectomy, DOCA plus saline, treated with resibufogenin): no meaningful increase
- UAGT (Final) ([2]; male rats, nephrectomy DOCA saline model, final measurement, NDS without RBG 2.2 ± 0.3): 2.0 ± 0.2 nmol/day
- effect on the hypertension induced by angiotensin infusion ([1]; angiotensin II infused rats): no effect
- angiotensinogen excretion (in words) [1]: no effect
- UAGT (Final) [1]: 7.8 ± 0.4 nmol/day
- UAGT (Initial) [1]: 2.6 ± 0.2 nmol/day
